Data published in US20240246940A1, “HETEROARYL DERIVATIVE COMPOUND AND USE THEREOF” (VORONOI INC., priority 2021, published 2024).

Columns and labels:
[1] = test system: SK-BR-3 cells (HER2 overexpressing cell line); test: SK-BR-3 cell proliferation inhibitory activity (CellTiter-Glo, 120 hours); format: cell-based; conditions: Homo sapiens
Method: (§1) To evaluate the cell proliferation inhibitory activity of the compound according to the present invention on HER2 and EGFR kinases, the following method was performed using HER2 overexpressing cell lines (SK-BR-3, BT-474, and N-87) and EGFR expressing cell line (HaCaT).
(§2) McCOY'S 5A supplemented with 10% FBS was used for SK-BR-3 cells, RPMI-1640 medium supplemented with 20% FBS was used for BT-474 cancer cells, and RPMI-1640 medium supplemented with 10% FBS was used for N-87 cancer cells. DMEM supplemented with 10% FBS was used for HaCaT cells.
(§3) For SK-BR-3 cells, 5000 cells were aliquoted into each well of a white clear bottom 96 well plate (Corning) 48 hours before treatment with the compounds of Examples. For BT-474 cells, 5000 cells were aliquoted into each well of a white clear bottom 96 well plate (Corning) 48 hours before treatment with the compounds of Examples. For N-87 cells, 5000 cells were aliquoted into each well of a white clear bottom 96 well plate (Corning) 24 hours before treatment with the compounds of Examples. For HaCaT cells, 3000 cells were aliquoted into each well of a white clear bottom 96 well plate (Corning) 24 hours before treatment with the compounds of Examples. For SK-BR-3 cells and BT-474 cells, the compounds of Examples were diluted in dimethyl sulfoxide (three-fold dilution, a total of 11 concentrations) and injected each in an amount of 1 μl to a final concentration of 0.2 nM to 10 μM. For N-87 cells, the compounds of Examples were diluted in dimethyl sulfoxide (five-fold dilution, a total of 11 concentrations) and injected each in an amount of 0.5 μl to a final concentration of […] to 5 μM. For HaCaT cells, the compounds of Examples were diluted in dimethyl sulfoxide (three-fold dilution, a total of 11 concentrations) and injected each in an amount of 0.5 μl to a final concentration of 0.8 nM to 45 μM. For the measurement of living cells, the cells were stored at room temperature for 10 minutes using CellTiter-Glo cell viability reagent (Promega) after a certain period of time (SK-BR-3: 120 hours, BT-474: 120 hours, N-87: 72 hours, and HaCaT: 72 hours) post treatment with the compounds of Examples, and the luminescence intensity thereof was measured using a reader (SynergyNeo, Biotek). Each test was repeated three times.
(§4) The result values were calculated as a cell growth rate (%) compared to those of the control group. A graph was created using the GraphPad Prism version 5.0 program, and GI50 values were calculated.

[2] = test system: HaCaT cells (EGFR expressing cell line); test: HaCaT cell proliferation inhibitory activity (CellTiter-Glo, 72 hours); format: cell-based; conditions: Homo sapiens
Method: as §1, §2, §3, §4

SMILES	GI50 [1] [nM]	GI50 [2] [nM]
C=CC(=O)N1CC(Oc2cc3c(Nc4cc(-c5ccc(F)c(F)c5)ccc4OC)ncnc3cc2OC)C1 [Example 29, 1-(3-((4-((3′,4′-difluoro-4-methoxy-[1,1′-biphenyl]-3-yl)amino)-7-methoxy-quinazolin-6-yl)oxy)azetidin-1-yl)prop-2-en-1-one]	≤ 150	≤ 150
C=CC(=O)N1CC(Oc2cc3c(Nc4cc(-c5ccc6ncnn6c5)ccc4OC)ncnc3cc2OC)C1 [Example 31, 1-(3-((4-((5-([1,2,4]triazolo [1,5-a]pyridin-6-yl)-2-methoxyphenyl)amino)-7-methoxy-quinazolin-6-yl)oxy)azetidin-1-yl)prop-2-en-1-one]	150 to 1000	> 1000
C=CC(=O)N1CC(Oc2cc3c(Nc4cc(-c5ccc6ccn(C)c6c5)ccc4OC)ncnc3cc2OC)C1 [Example 34, 1-(3-((7-methoxy-4-((2-methoxy-5-(1-methyl-1H-indol-6-yl)phenyl)amino)quinazolin-6-yl)oxy)azetidin-1-yl)prop-2-en-1-one]	> 1000	150 to 1000
C=CC(=O)N1CC(Oc2cc3c(Nc4cc(-c5cccn6ccnc56)ccc4OC)ncnc3cc2OC)C1 [Example 35, 1-(3-((4-((5-(imidazo[1,2-a]pyridin-8-yl)-2-methoxyphenyl)amino)-7-methoxy-quinazolin-6-yl)oxy)azetidin-1-yl)prop-2-en-1-one]	≤ 150	150 to 1000
C=CC(=O)N1CC(Oc2cc3c(Nc4cc(-c5cccc6ncsc56)ccc4OC)ncnc3cc2OC)C1 [Example 36, 1-(3-((4-((5-(benzo[d]thiazol-7-yl)-2-methoxyphenyl)amino)-7-methoxy-quinazolin-6-yl)oxy)azetidin-1-yl)prop-2-en-1-one]	150 to 1000	150 to 1000
C=CC(=O)N1CC(Oc2cc3c(Nc4cc(-c5cnn6cccnc56)ccc4OC)ncnc3cc2OC)C1 [Example 39, 1-(3-((7-methoxy-4-((2-methoxy-5-(pyrazolo[1,5-a]pyrimidin-3-yl)phenyl)amino)quinazolin-6-yl)oxy)azetidin-1-yl)prop-2-en-1-one]	150 to 1000	150 to 1000
C=CC(=O)N1CC(Oc2cc3c(Nc4cc(-c5coc6ccccc56)ccc4OC)ncnc3cc2OC)C1 [Example 40, 1-(3-((4-((5-(benzofuran-3-yl)-2-methoxyphenyl)amino)-7-methoxy-quinazolin-6-yl)oxy)azetidin-1-yl)prop-2-en-1-one]	150 to 1000	≤ 150
C=CC(=O)N1CC(Oc2cc3c(Nc4cc(-c5csc6ccccc56)ccc4OC)ncnc3cc2OC)C1 [Example 41, 1-(3-((4-((5-(benzo[b]thiophen-3-yl)-2-methoxyphenyl)amino)-7-methoxy-quinazolin-6-yl)oxy)azetidin-1-yl)prop-2-en-1-one]	≤ 150	≤ 150
C=CC(=O)N1CC(Oc2cc3c(Nc4cc(-c5ccoc5C)ccc4OC)ncnc3cc2OC)C1 [Example 51, 1-(3-((7-methoxy-4-((2-methoxy-5-(2-methylfuran-3-yl)phenyl)amino)quinazolin-6-yl)oxy)azetidin-1-yl)prop-2-en-1-one]	≤ 150	≤ 150
C=CC(=O)N1CC(Oc2cc3c(Nc4cc(-c5cccs5)c(C)cc4OC)ncnc3cc2OC)C1 [Example 52, 1-(3-((7-methoxy-4-((2-methoxy-4-methyl-5-(thiophen-2-yl)phenyl)amino)quinazolin-6-yl)oxy)azetidin-1-yl)prop-2-en-1-one]	≤ 150	≤ 150
C=CC(=O)N1CC(Oc2cc3c(Nc4cc(-c5cccs5)ccc4OCC)ncnc3cc2OC)C1 [Example 54, 1-(3-((4-((2-ethoxy-5-(thiophen-2-yl)phenyl)amino)-7-methoxy-quinazolin-6-yl)oxy)azetidin-1-yl)prop-2-en-1-one]	≤ 150	≤ 150
C=CC(=O)N1CC(Oc2cc3c(Nc4cc(-c5ccco5)ccc4OCC)ncnc3cc2OC)C1 [Example 55, 1-(3-((4-((2-ethoxy-5-(furan-2-yl)phenyl)amino)-7-methoxy-quinazolin-6-yl)oxy)azetidin-1-yl)prop-2-en-1-one]	≤ 150	≤ 150
C=CC(=O)N1CC(Oc2cc3c(Nc4cc(-c5ccn6ncnc6c5)ccc4OCC)ncnc3cc2OC)C1 [Example 56, 1-(3-((4-((5-([1,2,4]triazolo [1,5-a]pyridin-7-yl)-2-ethoxyphenyl)amino)-7-methoxy-quinazolin-6-yl)oxy)azetidin-1-yl)prop-2-en-1-one]	150 to 1000	> 1000
C=CC(=O)N1CC(Oc2cc3c(Nc4cc(-c5ccc6occc6c5)ccc4OCC)ncnc3cc2OC)C1 [Example 57, 1-(3-((4-((5-(benzofuran-5-yl)-2-ethoxyphenyl)amino)-7-methoxy-quinazolin-6-yl)oxy)azetidin-1-yl)prop-2-en-1-one]	150 to 1000	150 to 1000
C=CC(=O)N1CCC(Oc2cc3c(Nc4cc(-c5cccnc5)ccc4OC)ncnc3cc2OC)C1 (stereo not drawn) [Example 59, 1-(3-((7-methoxy-4-((2-methoxy-5-(pyridin-3-yl)phenyl)amino)quinazolin-6-yl)oxy)pyrrolidin-1-yl)prop-2-en-1-one]	150 to 1000	> 1000
C=CC(=O)N1CCC(Oc2cc3c(Nc4cc(-c5ccc(F)cc5)ccc4OC)ncnc3cc2OC)C1 (stereo not drawn) [Example 60, 1-(3-((4-((4′-fluoro-4-methoxy-[1,1′-biphenyl]-3-yl)amino)-7-methoxy-quinazolin-6-yl)oxy)pyrrolidin-1-yl)prop-2-en-1-one]	≤ 150	150 to 1000
C=CC(=O)N1CCC(Oc2cc3c(Nc4cc(-c5ccnn5C)ccc4OC)ncnc3cc2OC)C1 (stereo not drawn) [Example 61, 1-(3-((7-methoxy-4-((2-methoxy-5-(1-methyl-1H-pyrazol-5-yl)phenyl)amino)quinazolin-6-yl)oxy)pyrrolidin-1-yl)prop-2-en-1-one]	150 to 1000	> 1000
C=CC(=O)N1CCC(Oc2cc3c(Nc4cc(-c5cccnc5)ccc4OC)ncnc3cc2OC)CC1 [Example 66, 1-(4-((7-methoxy-4-((2-methoxy-5-(pyridin-3-yl)phenyl)amino)quinazolin-6-yl)oxy)piperidin-1-yl)prop-2-en-1-one]	150 to 1000	150 to 1000
C=CC(=O)N1CCC(Oc2cc3c(Nc4cc(-c5cccn6ccnc56)ccc4OC)ncnc3cc2OC)CC1 [Example 70, 1-(4-((4-((5-(imidazo[1,2-a]pyridin-8-yl)-2-methoxyphenyl)amino)-7-methoxy-quinazolin-6-yl)oxy)piperidin-1-yl)prop-2-en-1-one]	150 to 1000	> 1000
C=CC(=O)N1CCC(Oc2cc3c(Nc4cc(-c5ccc6occc6c5)ccc4OC)ncnc3cc2OC)CC1 [Example 71, 1-(4-((4-((5-(benzofuran-5-yl)-2-methoxyphenyl)amino)-7-methoxy-quinazolin-6-yl)oxy)piperidin-1-yl)prop-2-en-1-one]	150 to 1000	> 1000
C=CC(=O)N1CCC(Oc2cc3c(Nc4cc(-c5coc6ccccc56)ccc4OC)ncnc3cc2OC)CC1 [Example 73, 1-(4-((4-((5-(benzofuran-3-yl)-2-methoxyphenyl)amino)-7-methoxy-quinazolin-6-yl)oxy)piperidin-1-yl)prop-2-en-1-one]	≤ 150	≤ 150
